From paper PMC12246421 (NPJ Precision Oncology, 2025)

Target: METTL21A (Methyltransferase 21A) (Homo sapiens, UniProt Q8WXB1)
Experiment: SPR
Assay type: binding

Sequence of METTL21A (Methyltransferase 21A) (Q8WXB1 whole entry): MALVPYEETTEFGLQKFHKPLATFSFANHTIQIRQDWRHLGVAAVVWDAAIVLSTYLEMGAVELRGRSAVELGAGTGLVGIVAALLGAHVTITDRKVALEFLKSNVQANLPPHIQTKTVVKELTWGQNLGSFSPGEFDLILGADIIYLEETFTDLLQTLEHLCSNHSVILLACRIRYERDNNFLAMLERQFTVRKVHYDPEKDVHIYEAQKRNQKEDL

O=c1c(-c2ccc(O[C@@H]3O[C@H](CO)[C@@H](O)[C@H](O)[C@H]3O)cc2)coc2cc(O)cc(O)c12 [Sop, sophoricoside]
Kd: 122 µM
